The record followed here is US7932255B2, “2-aminocarbonyl substituted piperazine or diaza-cyclic compounds as apoptosis protein inhibitors (lap) modulators” (Novartis AG, priority 2006, dated 2011).

As a reminder, the IC50 is the concentration that inhibits the measured activity by half.

For one assay, the target named is T1, XIAP (Homo sapiens, UniProt P98170).
T1 construct: GST
T1 sequence (P98170 248-358 limits assumed, species assumed): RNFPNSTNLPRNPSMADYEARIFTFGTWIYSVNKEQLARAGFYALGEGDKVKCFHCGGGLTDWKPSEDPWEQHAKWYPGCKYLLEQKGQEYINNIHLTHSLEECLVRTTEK
Kind of assay: Disruption of the Smac peptide-(XIAP)BIR3 protein-protein interaction (Tables 2 and 3). The class given is binding. Particulars: Series A compounds, Table 2; read-out: XIAP IC50. As to the method:
IC50 values for Series A compounds for XIAP. An assay capable of measuring disruption of the Smac peptide-(XIAP)BIR3 protein-protein interaction is established in the art as described in Example 2. In this assay IAP Inhibitor compounds compete with an immobilized Smac peptide for occupancy of the BIR3 binding pocket of XIAP. The rationale for this strategy results from the mutually exclusive nature of either Caspase 9 or Smac binding to the BIR3 pocket.
Assays are performed and IC50 values are calculated as follows: […]
IC50 values are calculated by logarithmic regression analysis of the percentage inhibition of each compound at 4 concentrations (usually 3- or 10-fold dilution series starting at 10 μM). In each experiment, the actual inhibition by reference compound is used for normalization of IC50 values to the basis of an average value of the reference inhibitor: Normalized IC50=measured IC50 average ref. IC50/measured ref. IC50
Activity determinations of compounds herein using the testing method described herein and as are well known in the art, are used with the following test compounds of formula (I). […] “Activity” as used herein is defined as having IC50 values for IAP target inhibition of less than 10 μM. Specifically, in the table:
IC50 values for Series B compounds are provided for XIAP. Assays are performed as described above using methods well known in the art.
In the case of `CN[C@@H](C)C(=O)N[C@H](C(=O)N1CCN(Cc2ccccn2)C[C@H]1C(=O)NC1CCCc2ccccc21)C(C)C` (stereo partly drawn) [Compound 49, (S)-1-[(S)-3-Methyl-2-((S)-2-methylamino-propionylamino)-butyryl]-4-pyridin-2-ylmethyl-piperazine-2-carboxylic acid (1,2,3,4-tetrahydro-naphthalen-1-yl)-amide], the IC50 is less than 10 µM. Still for that read-out and setting: the result for `CN[C@@H](C)C(=O)N[C@H](C(=O)N1CCN(Cc2ccccc2)C[C@H]1C(=O)NC1CCCc2ccccc21)C(C)C` (stereo partly drawn) [Compound 54, (S)-4-Benzyl-1-[(S)-3-methyl-2-((S)-2-methylamino-propionylamino)-butyryl]-piperazine-2-carboxylic acid (1,2,3,4-tetrahydro-naphthalen-1-yl)-amide] reads less than 10 µM; that for `CN[C@@H](C)C(=O)N[C@H](C(=O)N1CCN(Cc2cncs2)C[C@H]1C(=O)NC1CCCc2ccccc21)C(C)C` (stereo partly drawn) [Compound 22, (S)-1-[(S)-3-Methyl-2-((S)-2-methylamino-propionylamino)-butyryl]-4-thiazol-5-ylmethyl-piperazine-2-carboxylic acid (1,2,3,4-tetrahydro-naphthalen-1-yl)-amide], less than 10 µM. On to `CN[C@@H](C)C(=O)N[C@H](C(=O)N1CCN(C(=O)N(C)c2ccccc2)C[C@H]1C(=O)NC1CCCc2ccccc21)C(C)C` (stereo partly drawn) [Compound 50, (S)-4-[(S)-3-Methyl-2-((S)-2-methylamino-propionylamino)-butyryl]-piperazine-1,3-dicarboxylic acid 1-(methyl-phenyl-amide) 3-[(1,2,3,4-tetrahydro-naphthalen-1-yl)-amide]], for which the IC50 was less than 10 µM.

Consider `CN[C@@H](C)C(=O)N[C@H](C(=O)N1CCN(Cc2cccc(Oc3ccccc3)c2)C[C@H]1C(=O)NC1CCCc2ccccc21)C(C)C` (stereo partly drawn) [Compound 4, (S)-1-[(S)-3-Methyl-2-((S)-2-methylamino-propionylamino)-butyryl]-4-(3-phenoxy-benzyl)-piperazine-2-carboxylic acid (1,2,3,4-tetrahydro-naphthalen-1-yl)-amide], for which the concentration for half-maximal inhibition (IC50) is less than 10 µM.

As to `CN[C@@H](C)C(=O)N[C@H](C(=O)N1CCN(Cc2ccc(NC(C)=O)cc2)C[C@H]1C(=O)NC1CCCc2ccccc21)C(C)C` (stereo partly drawn) [Compound 16, (S)-4-(4-Acetylamino-benzyl)-1-[(S)-3-methyl-2-((S)-2-methylamino-propionylamino)-butyryl]-piperazine-2-carboxylic acid (1,2,3,4-tetrahydro-naphthalen-1-yl)-amide], the IC50 is less than 10 µM. With `CN[C@@H](C)C(=O)N[C@H](C(=O)N1CCN(Cc2ccccc2OC)C[C@H]1C(=O)NC1CCCc2ccccc21)C(C)C` (stereo partly drawn) [Compound 37, (S)-4-(2-Methoxy-benzyl)-1-[(S)-3-methyl-2-((S)-2-methylamino-propionylamino)-butyryl]-piperazine-2-carboxylic acid (1,2,3,4-tetrahydro-naphthalen-1-yl)-amide], the IC50 is less than 10 µM.

In the case of `CN[C@@H](C)C(=O)N[C@H](C(=O)N1CCN(CC2CCCC2)C[C@H]1C(=O)NC1CCCc2ccccc21)C(C)C` (stereo partly drawn) [Compound 7, (S)-4-Cyclopentylmethyl-1-[(S)-3-methyl-2-((S)-2-methylamino-propionylamino)-butyryl]-piperazine-2-carboxylic acid (1,2,3,4-tetrahydro-naphthalen-1-yl)-amide], the half-maximal inhibitory concentration (IC50) was less than 10 µM. On the same count and under the same terms, the result for `CN[C@@H](C)C(=O)N[C@H](C(=O)N1CCN(Cc2ccccc2)C[C@H]1C(=O)NC1CCCc2ccccc21)C(C)C` (stereo partly drawn) [Compound 14, (S)-4-Benzyl-1-[(S)-3-methyl-2-((S)-2-methylamino-propionylamino)-butyryl]-piperazine-2-carboxylic acid (1,2,3,4-tetrahydro-naphthalen-1-yl)-amide] reads less than 10 µM; that for `CN[C@@H](C)C(=O)N[C@H](C(=O)N1CCN(C(=O)CCOC)C[C@H]1C(=O)NC1CCCc2ccccc21)C(C)C` (stereo partly drawn) [Compound 18, (S)-4-(3-Methoxy-propionyl)-1-[(S)-3-methyl-2-((S)-2-methylamino-propionylamino)-butyryl]-piperazine-2-carboxylic acid (1,2,3,4-tetrahydro-naphthalen-1-yl)-amide], less than 10 µM. As to `C[C@@H](C(=O)N[C@H](C(=O)N1CCN(Cc2ccccc2)C[C@H]1C(=O)N[C@@H]1CCCc2ccccc21)C1CCCCC1)N(C)C(=O)OC(C)(C)C` [Compound 58, [(S)-1-((S)-2-{(S)-4-Benzyl-2-[(R)-(1,2,3,4-tetrahydro-naphthalen-1-yl)carbamoyl]-piperazin-1-yl}-1-cyclohexyl-2-oxo-ethylcarbamoyl)-ethyl]-methyl-carbamic acid tert-butyl ester], the IC50 was more than 10 µM.

Still in this assay, the particulars now being: Series B compounds, Table 3; read-out: XIXP IC50.
As for `CN[C@@H](C)C(=O)N[C@H](C(=O)N1CCN(Cc2ccccc2)C[C@H]1C(=O)NCC1CCCCC1)C(C)C` [Compound 79, (S)-4-Benzyl-1-[(S)-3-methyl-2-((S)-2-methylamino-propionylamino)-butyryl]-piperazine-2-carboxylic acid cyclohexylmethyl-amide], the IC50 was less than 10 µM. `CN[C@@H](C)C(=O)N[C@H](C(=O)N1CCN(Cc2ccccc2)C[C@H]1C(=O)NCc1ccco1)C(C)C` [Compound 82, (S)-4-Benzyl-1-[(S)-3-methyl-2-((S)-2-methylamino-propionylamino)-butyryl]-piperazine-2-carboxylic acid (furan-2-ylmethyl)-amide]: the IC50 is less than 10 µM. Regarding `CN[C@@H](C)C(=O)N[C@H](C(=O)N1CCN(Cc2ccccc2)C[C@H]1C(=O)NC1c2ccccc2-c2ccccc21)C(C)C` [Compound 75, (S)-4-Benzyl-1-[(S)-3-methyl-2-((S)-2-methylamino-propionylamino)-butyryl]-piperazine-2-carboxylic acid (9H-fluoren-9-yl)-amide], the IC50 is less than 10 µM.

As to `CN[C@@H](C)C(=O)N[C@H](C(=O)N1CCN(Cc2ccccc2)C[C@H]1C(=O)NCc1ccc(F)cc1)C(C)C` [Compound 70, (S)-4-Benzyl-1-[(S)-3-methyl-2-((S)-2-methylamino-propionylamino)-butyryl]-piperazine-2-carboxylic acid 4-fluoro-benzylamide], the IC50 is less than 10 µM.

With `CCN(C(=O)[C@@H]1CN(Cc2ccccc2)CCN1C(=O)[C@@H](NC(=O)[C@H](C)NC)C(C)C)C1CCCc2ccccc21` (stereo partly drawn) [Compound 76, (S)-4-Benzyl-1-[(S)-3-methyl-2-((S)-2-methylamino-propionylamino)-butyrl]-piperazine-2-carboxylic acid ethyl-(1,2,3,4-tetrahydro-naphthalen-1-yl)-amide], the IC50 was less than 10 µM. Same read-out and setting: the result for `CN[C@@H](C)C(=O)N[C@H](C(=O)N1CCN(Cc2ccccc2)C[C@H]1C(=O)NCCCc1ccccc1)C(C)C` [Compound 72, (S)-4-Benzyl-1-[(S)-3-methyl-2-((S)-2-methylamino-propionylamino)-butyryl]-piperazine-2-carboxylic acid (3-phenyl-propyl)-amide] reads more than 10 µM.

For the molecule `CN[C@@H](C)C(=O)N[C@H](C(=O)N1CCN(Cc2ccccc2)C[C@H]1C(=O)NCCc1ccncc1)C(C)C` [Compound 69, (S)-4-Benzyl-1-[(S)-3-methyl-2-((S)-2-methylamino-propionylamino)-butyryl]-piperazine-2-carboxylic acid (2-pyridin-4-yl-ethyl)-amide], the IC50 is more than 10 µM.
